Data taken from the NIST ThermoML archive (doi:10.1016/j.jct.2004.11.017).

Assay: xn = mol fraction of the nth substance listed
Conditions: 101 kPa, Liquid

CC[S+]([O-])CC [diethyl sulfoxide] + O
mass density [kg/m3]
Conditions | 298.15 K | 303.15 K | 308.15 K | 313.15 K | 318.15 K | 323.15 K | 328.15 K | 333.15 K | 338.15 K | 343.15 K
x1 = 0.0997 | 1027.6 | 1024.2 | 1020.7 | 1017.1 | 1013.4 | 1009.6 | 1005.8 | 1001.8 | 997.8 | 993.7
x1 = 0.1996 | 1038.6 | 1034.2 | 1029.8 | 1025.4 | 1020.9 | 1016.3 | 1011.8 | 1005.9 | 1001.3 | 997.1
x1 = 0.2517 | 1038.4 | 1033.7 | 1029.6 | 1025 | 1020.5 | 1015.8 | 1011.2 | 1006.4 | 1001.7 | 996.9
x1 = 0.2978 | 1037.8 | 1033.3 | 1028.8 | 1024.2 | 1019.6 | 1015 | 1010.3 | 1005.6 | 1000.8 | 996
x1 = 0.3481 | 1035.8 | 1031.4 | 1026.8 | 1022.2 | 1017.6 | 1013 | 1008.3 | 1003.6 | 998.9 | 994.1
x1 = 0.3946 | 1034.7 | 1030.2 | 1025.7 | 1021.2 | 1016.6 | 1012 | 1007.3 | 1002.6 | 997.8 | 993
x1 = 0.4496 | 1031.6 | 1027.2 | 1022.7 | 1018.3 | 1013.8 | 1009.2 | 1004.5 | 999.9 | 995.2 | 990.5
x1 = 0.5053 | 1029.6 | 1025.1 | 1020.6 | 1016.2 | 1011.7 | 1007.1 | 1002.5 | 997.9 | 993.2 | 988.5
x1 = 0.5962 | 1026.4 | 1022.1 | 1017.6 | 1013.2 | 1008.7 | 1004.2 | 999.6 | 995 | 990.4 | 985.7
x1 = 0.6971 | 1021.9 | 1017.5 | 1013.1 | 1008.7 | 1004.3 | 999.8 | 995.3 | 990.8 | 986.2 | 981.7
x1 = 0.8061 | 1018.2 | 1013.9 | 1009.6 | 1005.2 | 1000.8 | 996.4 | 991.9 | 987.4 | 982.9 | 978.4
x1 = 0.8946 | 1015.3 | 1011 | 1006.7 | 1002.3 | 997.9 | 993.5 | 989.1 | 984.7 | 980.2 | 975.7
x1 = 1 | 1010.2 | 1005.8 | 1001.4 | 997 | 992.6 | 988.2 | 983.9 | 979.5 | 975.1 | 970.6
